For 16 molecules, EC50 and melting point results are on record in patent publication US8541455B2, “Derivatives of 2-pyridin-2-yl-pyrazol-3(2H)-one, preparation and therapeutic use thereof as HIF activators” (Sanofi, priority 2008, dated 2013).

The test system of one data set is HIF1-alpha. Kind of data set: Measurement of the stabilization of HIF1-alpha in HEKEA cells (beta-galactosidase complementation, luminescence). The class given is cell-based, human. The note with it: HEKEA_HIF1-alphaPLBL cells, 6 hours incubation under normoxia; concentration that produces 50% of the maximum response of this same compound. An excerpt:
Furthermore, a subject of the invention is also a uniform test process for the direct measurement by beta-galactosidase complementation of the amount of HIF1-alpha protein in the nucleus of cells, preferably HEK cells, after treating the said cells with one or more test compounds, which consists in: • (a) inoculating, preferably in 384-well plates, the said cells in a suitable culture medium, preferably 1% foetal calf serum (abbreviated as FCS); • (b) adding the test compound(s) at a suitable concentration in a suitable solvent to the cells previously inoculated in the said culture medium; preferably the test compounds are diluted in 0.1% FCS; • (c) incubating the said cells thus prepared in an indicator at about 37° C., advantageously for about 6 hours; • (d) lysing the cells with a lysis buffer containing a chemiluminescent substrate for beta-galactosidase; • (e) incubating in the absence of light, before reading and measuring the luminescence, which is a function of the beta-galactosidase activity.
Many tests exist describing the indirect measurement of the activity of HIF via reporter gene systems (HRE-luciferase) or via the measurement of HIF-induced proteins (for example VEGF or EPO). Furthermore, the only tests that allow direct measurement of the amount of HIF1-alpha protein in cells are tests using antibodies, for instance Western blotting comprising phases of cell extraction (total lysates or nuclear extracts) that are consuming in terms of cells and time, thus limiting the compound screening capacity. The object was thus to develop a sensitive screening test, adaptable to 384-well plates, for directly measuring the amount of HIF1-alpha protein in the nucleus of cells. This test was established in HEK cells ([…]).
The test is a cell test based on the principle of enzyme complementation, the enzyme used herein being beta-galactosidase. HEKEA cells are HEK cells stably expressing, and restricted in their nucleus, mutant beta-galactosidase (omega fragment, also known as EA) (line sold by DiscoverX). This construct makes it possible to obtain beta-galactosidase activity only when the protein comprising the Prolabel complementation fragment has migrated into the nucleus.
The protein of interest comprising the Prolabel fragment is in this case an HIF1-alpha or HIF1-alpha mutated at the two prolines 402 and 564 replaced with alanines, is C-terminal fused via molecular biology (DiscoverX vector sold by Clontech) with the small complementation peptide fragment (Prolabel or ED, about 4 kDa). The vector coding for the chimeric protein HIF1-alpha_Prolabel is then transfected into HEKEA cells to obtain stable clones (HEKEA_HIF1-alphaPLBL).
The amount of C-terminal Prolabel-“labelled” HIF1-alpha protein obtained after treating the cells to hypoxia or compounds that are potentially HIF activators is measured by adding to the cells a lysis buffer containing a chemiluminescent substrate for beta-galactosidase.
The measurement of the beta-galactosidase activity will be proportional to the amount of Prolabel and thus of HIF1-alpha that has migrated into the nucleus of the cells.
• 1.3.1 Experiment Plan • 1) Inoculation of the cells on D0 • 2) Adherence for 24 hours under normoxia • 3) Preparation and addition of the products (Biomek 2000 and FX) on D+1 • 4) Incubation under normoxia for 6 hours • 5) Reading of the plates (by luminescence)
The cells are inoculated with Multidrop in white, opaque-bottomed 384-well plates (Greiner ref 3704), in 30 μl of culture medium (1% FCS) at 10 000 cells/well (cell plate). • 1.3.3 Treatment • Preparation of the Dilution Plate (DL Plate)
The test products are prepared at 3×10^−2 M in 100% DMSO and then diluted to 3×10^−4 M in medium containing 0.1% FCS (10 μl in 990 μl of MEM). They are then deposited by hand into column 12 of a round-bottomed 96-well plate (200 μl of each compound) known as the dilution plate (dl). […]

Data set [1] concerns EPO secretion by Hep3B cells. Briefly: Measurement of the secretion of EPO by Hep3B hepatocytes (ELISA on supernatant). The following applies: Homo sapiens, 18 hours incubation under normoxia, EPO in supernatant, 50% of the maximum response of this same compound. The class given is cell-based. The source says:
(§1) 2. Measurement of the Secretion of VEGF and EPO by Hep3B Hepatocytes 2.1. Object
(§2) HIF is a transcription factor involved in the adaptation of cells to hypoxia. Since the genes activated by HIF are involved in the adaptive response of cells to hypoxia and of tissues to ischaemia, the object is to identify and characterize compounds that stabilize HIF1-alpha in cells in order to amplify or mimic its beneficial effect. HIF1-alpha was identified following the analysis of the EPO gene promoter, which makes this protein one of the first markers of HIF1-alpha activation. Moreover, VEGF is also identified in the literature as one of the main markers of HIF activation. It is for this reason that measurement of these two proteins was selected for characterizing compounds that are HIF activators in Hep3B cells.
(§3) The object was thus to develop a sensitive screening test, adaptable to 96-well plates, for directly measuring the amount of VEGF and EPO in the supernatant of the Hep3B cells (cells derived from a human hepatocarcinoma) in response to the potential HIF activators.
(§4) The test is an ELISA test for measuring VEGF and EPO in the supernatant of Hep3B cells treated under hypoxia or with deferoxamine as controls or with the potential HIF activators. The test was adapted to a 96-well plate, allowing greater compound screening capacity.
(§5) • 2.3.1 Experiment Plan • 1) Inoculation of the cells on D0 • 2) Adherence for 6 hours under normoxia • 3) Preparation and addition of the products (Biomek 2000 and FX) • 4) Incubation under normoxia for 18 hours • 5) EPO and VEGF assay in the supernatant on D+1 • 2.3.2 Inoculation of the Cells
(§6) The cells are subcultured into 100 μl of culture medium (10% FCS) in black, opaque-bottomed 96-well plates (reference Costar 3916) at 30 000 cells/well, with Multidrop. • 2.3.3 Treatment of the Cells
(§7) The test products are prepared at 10^−2 M in 100% DMSO and then diluted to […] in medium containing 0.1% FCS (6 μl in 194 μl of MEM). 200 μl of each compound are deposited in column 12 of a 96-well plate. Dilution ranges from […] to 3×10^−8M are prepared with Biomek 2000 (programme: range of 9 points in series). 100 μl of MEM 0.1% FCS and Deferoxamine 5×10^−3M are added as controls to column 3 and, respectively, to wells A,B,C,D and wells E,F,G,H • DL Plate Distribution in Cell Plates
(§8) The medium of the cells inoculated the day before into 96-well plates is changed for 90 μl of medium containing 0.1% FCS and 10 μl are distributed with FX 96 from the 96-well DL plates to the cell plates.
(§9) The cell plates thus treated are placed for 18 hours in an incubator at 37° C. (ambient O2, 6% CO2).
(§10) The supernatants (80 μl) of the Hep3B cells in the 96-well plates treated with the potential HIF activators are recovered with a multichannel pipette for simultaneous assay of the VEGF and the EPO by ELISA according to the supplier's instructions (Kit EPO Mesoscale (ref K15122B-2)).
(§11) The activating activity of a compound with respect to HIF is given by the concentration that produces 50% of the maximum response of this same compound in Table IV below.
Background: In an ELISA, binding on a coated surface is turned into a signal by an enzyme label.

Data set [2] deals with VEGF secretion by Hep3B cells. Briefly: Measurement of the secretion of VEGF by Hep3B hepatocytes (ELISA on supernatant). The note with it: Homo sapiens, 18 hours incubation under normoxia, VEGF in supernatant, 50% of the maximum response of this same compound. The class given is cell-based.
Excerpt: as §1, §2, §3, §4, §5, §6, §7, §8, §9, §10, §11

Where a name gives a salt, the structure may show the parent alone.

As usually defined, the EC50 is the concentration needed to bring the measured effect to its halfway point. Read a high EC50 as lower potency in that assay. As a reminder, the melting point is the temperature, or range, at which the solid turns liquid.

Molecule `CCN(c1ccccc1)S(=O)(=O)c1ccc(-n2[nH]c(C)c(CCc3ccccc3)c2=O)nc1` [Compound 74, N-ethyl-6-[3-methyl-5-oxo-4-(2-phenylethyl)-2,5-dihydro-1H-pyrazol-1-yl]-N-phenylpyridine-3-sulfonamide] yielded a melting point of 158 °C. Moreover, the midpoint of the response with HIF1-alpha, the EC50, lay at 3700 nM. Besides, the midpoint of the response in data set [1], the EC50, lay at 300 nM.
With `CCN(c1ccccc1)S(=O)(=O)c1ccc(-n2[nH]c(C)c(Cc3cccc(OCCN(C)C)c3)c2=O)nc1` [Compound 56, 6-(4-{3-[2-(dimethylamino)ethoxy]benzyl}-3-methyl-5-oxo-2,5-dihydro-1H-pyrazol-1-yl)-N-ethyl-N-phenylpyridine-3-sulfonamide hydrochloride], the figures for the EC50 (in the data set with HIF1-alpha; in data set [2]; in data set [1]) were 2100 nM, 2500 nM and 2000 nM, respectively.
The molecule `CCN(c1ccccc1)S(=O)(=O)c1ccc(-n2[nH]c(C)c(C(C)(C)c3ccccc3)c2=O)nc1` [Compound 77, N-ethyl-6-[3-methyl-4-(1-methyl-1-phenylethyl)-5-oxo-2,5-dihydro-1H-pyrazol-1-yl]-N-phenylpyridine-3-sulfonamide] had a melting point of 122 °C. This molecule displayed an EC50 in the data set with HIF1-alpha of 4800 nM. This molecule returned an EC50 in data set [2] of 1300 nM. The molecule further yielded an EC50 in data set [1] of 1400 nM.
On the same counts, the results for `CCN(c1ccccc1)S(=O)(=O)c1ccc(-n2[nH]c(C)c(Cc3ncccc3OC)c2=O)nc1` [Compound 81] are 130 °C, 7500 nM, 1900 nM and 1200 nM.
On the same counts, the results for `CCN(c1ccccc1)S(=O)(=O)c1ccc(-n2[nH]c(C)c(CCc3ccccn3)c2=O)nc1` [Compound 85] are 188 °C, 1800 nM, 2500 nM and 2500 nM.
In the case of `CCN(c1ccccc1)S(=O)(=O)c1ccc(-n2[nH]c(C)c(Cc3cccnc3)c2=O)nc1` [Compound 43], the values for the EC50 (in the data set on HIF1-alpha; in data set [2]; in data set [1]) were 3100 nM, 1700 nM and 1500 nM, respectively.
As to `CC(C)(C)NS(=O)(=O)c1ccc(-n2[nH]cc(Cc3cccnc3)c2=O)nc1` [Compound 98B, N-tert-butyl-6-[5-oxo-4-(pyridin-3-ylmethyl)-2,5-dihydro-1H-pyrazol-1-yl]pyridine-3-sulfonamide hydrochloride], it took 2500 nM to reach a half-maximal effect in the data set on HIF1-alpha (EC50).
`CCN(c1ccccc1)S(=O)(=O)c1ccc(-n2[nH]c(C)c(CCCc3ccccc3)c2=O)nc1` [Compound 92] returned a melting point of 158 °C. In the data set with HIF1-alpha, this molecule yielded a half-maximal effective concentration (EC50) of 860 nM. For the same molecule, the midpoint of the response in data set [2], the EC50, lay at 500 nM. In data set [1], this molecule returned an EC50 of 500 nM.
In the case of `CCN(c1ccccc1)S(=O)(=O)c1ccc(-n2[nH]c(C)c(C3(c4ccccc4)CC3)c2=O)nc1` [Compound 80, N-ethyl-6-[3-methyl-5-oxo-4-(1-phenylcyclopropyl)-2,5-dihydro-1H-pyrazol-1-yl]-N-phenylpyridine-3-sulfonamide], the melting point turned out to be 146 °C. Further, in the data set on HIF1-alpha, the EC50 stood at 3300 nM. Besides, in data set [2], the EC50 turned out to be 900 nM. The molecule further came in with an EC50 in data set [1] of 400 nM.
Turning to `CCN(c1ccccc1)S(=O)(=O)c1ccc(-n2[nH]c(C)c(Cc3c(F)cccc3Cl)c2=O)nc1` [Compound 20, 6-[4-(2-chloro-6-fluorobenzyl)-3-methyl-5-oxo-2,5-dihydro-1H-pyrazol-1-yl]-N-ethyl-N-phenylpyridine-3-sulfonamide], the EC50 in data set [2] was 1100 nM; in data set [1], 1000 nM.
`CCN(c1ccccc1)S(=O)(=O)c1ccc(-n2[nH]c(C)c(Cc3ccccc3)c2=O)nc1` [Compound 42] came in with a melting point of 212 °C. Further, the concentration for a half-maximal effect (EC50) in the data set on HIF1-alpha came to 4800 nM. The half-maximal effective concentration (EC50) in data set [2] turned out to be 1300 nM. The EC50 in data set [1] is 1100 nM.
`CCN(c1ccccc1)S(=O)(=O)c1ccc(-n2[nH]c(C)c(Cc3ccc(S(C)(=O)=O)cc3)c2=O)nc1` [Compound 39]: the melting point was found to be 224 °C. For the same molecule, in the data set with HIF1-alpha, the concentration giving a half-maximal response (EC50) was 1800 nM. This molecule also registered an EC50 in data set [1] of 2000 nM.
The molecule `CCN(c1ccccc1)S(=O)(=O)c1ccc(-n2[nH]c(COC)c(Cc3ccccc3)c2=O)nc1` [Compound 82] had a melting point of 158 °C. Further, the midpoint of the response in the data set with HIF1-alpha, the EC50, lay at 1500 nM. The molecule further returned a concentration giving a half-maximal response (EC50) in data set [2] of 1200 nM. In data set [1], this molecule yielded an EC50 of 1000 nM.
Turning to `CCN(c1ccccc1)S(=O)(=O)c1ccc(-n2[nH]cc(Cc3ccccc3)c2=O)nc1` [Compound 93, 6-(4-benzyl-5-oxo-2,5-dihydro-1H-pyrazol-1-yl)-N-ethyl-N-phenylpyridine-3-sulfonamide], the figures for the 50% effective concentration (EC50) (with HIF1-alpha; in data set [2]; in data set [1]) were 350 nM, 400 nM and 400 nM, respectively.
`CCN(c1ccccc1)S(=O)(=O)c1ccc(-n2[nH]c(C)c(Cc3cccc(OCCOC)c3)c2=O)nc1` [Compound 38, N-ethyl-6-{4-[3-(2-methoxyethoxy)benzyl]-3-methyl-5-oxo-2,5-dihydro-1H-pyrazol-1-yl}-N-phenylpyridine-3-sulfonamide] yielded a melting point of 126 °C. In the data set with HIF1-alpha, this molecule had a 50% effective concentration (EC50) of 4700 nM. The same molecule yielded a 50% effective concentration (EC50) in data set [1] of 1000 nM.
`CCN(c1ccccc1)S(=O)(=O)c1ccc(-n2[nH]c(C)c(Cc3ccc(Cl)cc3Cl)c2=O)nc1` [Compound 14] showed a melting point of 178 °C. The same molecule had a half-maximal effective concentration (EC50) with HIF1-alpha of 3800 nM. In data set [1], this molecule registered an EC50 of 300 nM.
